Test results published in patent US20050234066A1, “Alpha substituted carboxylic acids” (Agouron Pharmaceuticals, Inc., priority 2004, published 2005).

Experiments:
[1] = molecular target: T1, PPAR-γ (Homo sapiens, UniProt P37231); experiment: Scintillation Proximity Assay (SPA), displacement of 3H labeled darglitazone; format: binding; conditions: 3H darglitazone displacement, read-out: PPAR-gamma Ki
T1 sequence (P37231 1-505): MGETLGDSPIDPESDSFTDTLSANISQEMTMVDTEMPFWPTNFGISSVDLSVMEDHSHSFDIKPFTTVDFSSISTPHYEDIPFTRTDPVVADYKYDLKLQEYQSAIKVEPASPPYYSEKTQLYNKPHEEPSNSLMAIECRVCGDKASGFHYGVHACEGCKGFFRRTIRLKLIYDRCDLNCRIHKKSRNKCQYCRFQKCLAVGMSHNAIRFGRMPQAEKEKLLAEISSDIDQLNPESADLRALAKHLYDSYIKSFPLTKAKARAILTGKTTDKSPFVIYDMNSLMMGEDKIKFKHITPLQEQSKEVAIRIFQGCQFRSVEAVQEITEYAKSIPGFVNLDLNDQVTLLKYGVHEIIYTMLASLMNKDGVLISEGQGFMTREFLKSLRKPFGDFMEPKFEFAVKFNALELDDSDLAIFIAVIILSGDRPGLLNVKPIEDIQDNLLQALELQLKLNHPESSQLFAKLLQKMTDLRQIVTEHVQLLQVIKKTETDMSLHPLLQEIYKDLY
Description: (§1) Scintillatian Proximity Assay (SPA) Assays
(§2) In the SPA assay, 3H labeled darglitazone (for PPAR-γ) or GW2331 (for PPAR-α) is bound to the PPAR protein captured on SPA polylysine beads and generates radioactive count signal that can be detected by TopCounts (Packard). The PPAR-bound 3H labeled ligand can be displaced by an unlabeled compound. The Ki of the compound can be then determined by the extent of displacement at various compound concentrations. Reagents: • SPA polylysine beads, which can be purchased from Amersham Bioscience. • H labeled Darglitazone for PPAR-γ. • H labeled GW2331 for PPAR-α. • PPAR proteins. • Buffer—PBS, 10% glycerol, 14 mM beta-mercaptoethanol.

[2] = molecular target: T2, PPAR-α (Homo sapiens, UniProt Q07869); experiment: Scintillation Proximity Assay (SPA), displacement of 3H labeled GW2331; format: binding; conditions: 3H GW2331 displacement, read-out: PPAR-alpha Ki
T2 sequence (Q07869 1-468): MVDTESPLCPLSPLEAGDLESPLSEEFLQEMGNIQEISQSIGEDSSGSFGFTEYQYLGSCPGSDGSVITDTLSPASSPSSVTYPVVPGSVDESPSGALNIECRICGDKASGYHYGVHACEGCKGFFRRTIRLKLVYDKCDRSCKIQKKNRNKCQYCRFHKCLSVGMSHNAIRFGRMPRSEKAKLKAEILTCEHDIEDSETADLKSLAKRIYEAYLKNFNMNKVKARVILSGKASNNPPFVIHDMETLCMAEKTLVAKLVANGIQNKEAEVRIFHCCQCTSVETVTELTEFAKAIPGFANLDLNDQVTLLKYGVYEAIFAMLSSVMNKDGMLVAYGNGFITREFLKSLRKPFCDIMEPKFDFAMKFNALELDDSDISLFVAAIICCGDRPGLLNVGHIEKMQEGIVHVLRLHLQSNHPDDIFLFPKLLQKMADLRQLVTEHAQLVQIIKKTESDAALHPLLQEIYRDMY
Description: as §1, §2

Ki [1] [nM]	Ki [2] [nM]	Structure (SMILES)
7	15	Cc1oc(-c2cccc(N(C)C)c2)nc1CCOc1ccc(CC2(C(=O)O)CCCO2)cc1 (centres unmarked) [Example C-79]
62	53	Cc1oc(-c2ccc(C#N)cc2)nc1CCOc1ccc(CC2(C(=O)O)CCCO2)cc1 (centres unmarked) [Example C-80]
15	750	Cc1oc(-c2ccc(C(N)=O)cc2)nc1CCOc1ccc(CC2(C(=O)O)CCCO2)cc1 (centres unmarked) [Example C-81]
8	4	Cc1ccc(-c2nc(CCOc3ccc(CC4(C(=O)O)CCCO4)cc3)c(C)o2)cc1 (centres unmarked) [Example C-83]
21	64	COc1ccc(-c2nc(CCOc3ccc(CC4(C(=O)O)CCCO4)cc3)c(C)o2)cc1 (centres unmarked) [Example C-84]
4	13	COc1cccc(-c2nc(CCOc3ccc(CC4(C(=O)O)CCCO4)cc3)c(C)o2)c1 (centres unmarked) [Example C-85]
5	13	Cc1oc(-c2cccc(Cl)c2)nc1CCOc1ccc(CC2(C(=O)O)CCCO2)cc1 (centres unmarked) [Example C-86]
12	25	Cc1oc(-c2cccc(C(F)(F)F)c2)nc1CCOc1ccc(CC2(C(=O)O)CCCO2)cc1 (centres unmarked) [Example C-87]
40	30	Cc1cccc(-c2nc(CCOc3ccc(CC4(C(=O)O)CCCO4)cc3)c(C)o2)c1 (centres unmarked) [Example C-89]
17	110	Cc1oc(-c2ccc(C(F)(F)F)cc2)nc1CCOc1ccc(CC2(C(=O)O)CCCO2)cc1 (centres unmarked) [Example C-90]
390	1800	Cc1oc(-c2ccccc2)nc1CCOc1ccc2cc(CC3(C(=O)O)CCCO3)ccc2c1 (centres unmarked) [Example C-91]
1100	2800	Cc1oc(-c2ccccc2)nc1CCCOc1ccc2cc(CC3(C(=O)O)CCCO3)ccc2c1 (centres unmarked) [Example C-92]
11	300	Cc1oc(-c2ccccc2)nc1COc1ccc2cc(CC3(C(=O)O)CCCO3)ccc2c1 (centres unmarked) [Example C-93]
970	8600	Cc1oc(-c2ccccc2)nc1CCOc1ccc(CC2(c3nnn[nH]3)CCCO2)cn1 (centres unmarked) [Example C-95, 2-[2-(5-Methyl-2-phenyl-oxazol-4-yl)-ethoxy]-5-[2-(1H-tetrazol-5-yl)-tetrahydro-furan-2-ylmethyl]-pyridine]
460	290	COC(Cc1ccc(OCCc2nc(-c3ccc(C#N)cc3)oc2C)nc1)C(=O)O [Example D-02]
11	300	COC(Cc1ccc(OCCc2nc(-c3cccc(C)c3)oc2C)nc1)C(=O)O [Example D-03]
440	290	COC(Cc1ccc(OCCc2nc(-c3ccc(Cl)cc3)oc2C)nc1)C(=O)O [Example D-04]
17	320	COc1ccc(-c2nc(CCOc3ccc(CC(OC)C(=O)O)cn3)c(C)o2)cc1 [Example D-07]
2	15	COc1cccc(-c2nc(CCOc3ccc(CC(OC)C(=O)O)cn3)c(C)o2)c1 [Example D-08]
61	50	COC(Cc1ccc(OCCc2nc(-c3ccc(C(F)(F)F)cc3)oc2C)nc1)C(=O)O [Example D-09]

Ki [1] [nM]	Ki [2] [nM]	Structure (SMILES)
19	33	COC(Cc1ccc(OCCc2nc(-c3ccc(C)cc3)oc2C)nc1)C(=O)O [Example D-10]
6200	5100	CCS(=O)(=O)Oc1ccc(CCOc2ccc(CC(OC)C(=O)O)cn2)cc1 [Example D-11]
360	190	COC(Cc1ccc(OCCc2ccc(Oc3ccccc3)cc2)nc1)C(=O)O [Example D-13]
1500	2600	CCOC(Cc1ccc(OCCc2ccc(Oc3ccccc3)cc2)nc1)C(=O)O [Example D-14]
350	220	CCOC(Cc1ccc(OCCc2nc(-c3ccc(Cl)cc3)oc2C)nc1)C(=O)O [Example D-15]
31	910	CCOC(Cc1ccc(OCCc2ccc(OS(=O)(=O)c3ccccc3)cc2)nc1)C(=O)O [Example D-17]
450	620	CCOC(Cc1ccc(OCCc2ccc(OS(=O)(=O)CC)cc2)nc1)C(=O)O [Example D-18]
1700	6400	CCOC(Cc1ccc(OCCc2ccc(OS(C)(=O)=O)cc2)nc1)C(=O)O [Example D-19]
480	840	CCOC(Cc1ccc(OCCc2ccc(OC(F)(F)F)cc2)nc1)C(=O)O [Example D-20]
2100	10000	CCOc1ccc(CCOc2ccc(CC(OCC)C(=O)O)cn2)cc1 [Example D-21]
1600	4800	COC(C)(Cc1ccc(OCCCc2nc(-c3ccccc3)oc2C)cn1)C(=O)O [Example D-28]
400	800	COC(C)(Cc1ccc(OCCc2nc(-c3ccccc3)oc2C)cn1)C(=O)O [Example D-29]
1000	88	COC(C)(Cc1ccc(OCCc2nc(-c3ccc(C(F)(F)F)cc3)oc2C)nc1)C(=O)O [Example D-31]
1500	59	COC(C)(Cc1ccc(OCCc2nc(C3CCCCC3)oc2C)nc1)C(=O)O [Example D-32]
690	550	COC(C)(Cc1ccc(OCCc2nc(-c3ccccc3)sc2C)nc1)C(=O)O [Example D-33]
9100	3200	COC(C)(Cc1ccc(OCCN(C)c2nc3ccccc3o2)nc1)C(=O)O [Example D-34]
230	730	COC(C)(Cc1ccc(OCCc2nc(-c3cccc(C)c3)oc2C)nc1)C(=O)O [Example D-36]
530	4700	CCOc1ccc(-c2nc(CCOc3ccc(CC(C)(OC)C(=O)O)cn3)c(C)o2)cc1 [Example D-37]
9600	1800	COC(C)(Cc1ccc(OCCc2ccc(Oc3ccccc3)cc2)nc1)C(=O)O [Example D-40]
700	1000	COC(C)(Cc1ccc(OCCc2nc(-c3cccc(F)c3)oc2C)nc1)C(=O)O [Example D-42]
